system: KRas G12D-mediated phosphorylation of ERK; assay: Inhibition of KRas G12D-mediated phosphorylation of ERK in AGS cells; type: cell-based; conditions: Homo sapiens; AGS cells expressing G12D, 3 hours, phospho-ERK normalized to GAPDH
Outline: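 Fixed, methanol-permeabilized; phospho-ERK (Thr202/Tyr204) by in-cell immunofluorescence normalized to GAPDH. Percent of DMSO control, IC50 by 4-parameter fit.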

SMILES	IC50
Oc1cc(-c2ncc3c(N4C[C@H]5CC[C@@H](C4)N5)nc(OC[C@@]45CCCN4C[C@H](F)C5)nc3c2F)c2c(Cl)cccc2c1 [Example 251, 4-(4-((1R,5S)-3,8-diazabicyclo[3.2.1]octan-3-yl)-8-fluoro-2-(((2R,7aS)-2-fluorohexahydro-1H-pyrrolizin-7a-yl)methoxy)pyrido[4,3-d]pyrimidin-7-yl)-5-chloronaphthalen-2-ol]	10.3 nM
CCCc1cccc2cccc(-c3ncc4c(N5C[C@H]6CC[C@@H](C5)N6)nc(OCC56CCCN5CCC6)nc4c3F)c12 [Example 254, 4-((1R,5S)-3,8-diazabicyclo[3.2.1]octan-3-yl)-8-fluoro-2-((hexahydro-1H-pyrrolizin-7a-yl)methoxy)-7-(8-propylnaphthalen-1-yl)pyrido[4,3-d]pyrimidine]	2430 nM
FCCCc1cccc2cccc(-c3ncc4c(N5C[C@H]6CC[C@@H](C5)N6)nc(OCC56CCCN5CCC6)nc4c3F)c12 [Example 255, 4-((1R,5S)-3,8-diazabicyclo[3.2.1]octan-3-yl)-8-fluoro-7-(8-(3-fluoropropyl)naphthalen-1-yl)-2-((hexahydro-1H-pyrrolizin-7a-yl)methoxy)pyrido[4,3-d]pyrimidine]	673 nM
Cc1ccc(O)cc1-c1ncc2c(N3C[C@H]4CC[C@@H](C3)N4)nc(OCC34CCCN3CCC4)nc2c1F [Example 256, 3-(4-((1R,5S)-3,8-diazabicyclo[3.2.1]octan-3-yl)-8-fluoro-2-((hexahydro-1H-pyrrolizin-7a-yl)methoxy)pyrido[4,3-d]pyrimidin-7-yl)-4-methylphenol]	> 16700 nM
Fc1c(-c2c3ccccc3cc3[nH]ncc23)ncc2c(N3C[C@H]4CC[C@@H](C3)N4)nc(OCC34CCCN3CCC4)nc12 [Example 257, 4-(4-((1R,5S)-3,8-diazabicyclo[3.2.1]octan-3-yl)-8-fluoro-2-((hexahydro-1H-pyrrolizin-7a-yl)methoxy)pyrido[4,3-d]pyrimidin-7-yl)-1H-benzo[f]indazole]	531 nM
Fc1c(-c2c(OC(F)(F)F)ccc3[nH]ncc23)ncc2c(N3C[C@H]4CC[C@@H](C3)N4)nc(OCC34CCCN3CCC4)nc12 [Example 258, 4-((1R,5S)-3,8-diazabicyclo[3.2.1]octan-3-yl)-8-fluoro-2-((hexahydro-1H-pyrrolizin-7a-yl)methoxy)-7-(5-(trifluoromethoxy)-1H-indazol-4-yl)pyrido[4,3-d]pyrimidine]	1460 nM
CCc1cccc2cc(O)cc(-c3ncc4c(N5C[C@H]6CC[C@@H](C5)N6)nc(OC[C@@]56CCCN5C[C@H](F)C6)nc4c3F)c12 [Example 259, 4-(4-((1R,5S)-3,8-diazabicyclo[3.2.1]octan-3-yl)-8-fluoro-2-(((2R,7aS)-2-fluorotetrahydro-1H-pyrrolizin-7a(5H)-yl)methoxy)pyrido[4,3-d]pyrimidin-7-yl)-5-ethylnaphthalen-2-ol]	3.9 nM
CN1C[C@H](OC(=O)NCCOCc2ccc(O)cc2)C[C@H]1COc1nc(N2C[C@H]3CC[C@@H](C2)N3)c2cnc(-c3cccc4cccc(Cl)c34)c(F)c2n1 [Example 260, (3R,5S)-5-(((4-((1R,5S)-3,8-diazabicyclo[3.2.1]octan-3-yl)-7-(8-chloronaphthalen-1-yl)-8-fluoropyrido[4,3-d]pyrimidin-2-yl)oxy)methyl)-1-methylpyrrolidin-3-yl (2-((4-hydroxybenzyl)oxy)ethyl)carbamate]	> 16700 nM
CCc1ccc(O)cc1-c1ncc2c(N3C[C@H]4CC[C@@H](C3)N4)nc(OCC34CCCN3CCC4)nc2c1F [Example 263, 3-(4-((1R,5S)-3,8-diazabicyclo[3.2.1]octan-3-yl)-8-fluoro-2-((hexahydro-1H-pyrrolizin-7a-yl)methoxy)pyrido[4,3-d]pyrimidin-7-yl)-4-ethylphenol]	7640 nM
Cc1c(Cl)cccc1-c1ncc2c(N3C[C@H]4CC[C@@H](C3)N4)nc(OCC34CCCN3CCC4)nc2c1F [Example 274, 4-((1R,5S)-3,8-diazabicyclo[3.2.1]octan-3-yl)-7-(3-chloro-2-methylphenyl)-8-fluoro-2-((hexahydro-1H-pyrrolizin-7a-yl)methoxy)pyrido[4,3-d]pyrimidine]	4710 nM
Cc1cccc(-c2ncc3c(N4C[C@H]5CC[C@@H](C4)N5)nc(OCC45CCCN4CCC5)nc3c2F)c1C [Example 275, 4-((1R,5S)-3,8-diazabicyclo[3.2.1]octan-3-yl)-7-(2,3-dimethylphenyl)-8-fluoro-2-((hexahydro-1H-pyrrolizin-7a-yl)methoxy)pyrido[4,3-d]pyrimidine]	7060 nM
Cc1cccc(-c2ncc3c(N4C[C@H]5CC[C@@H](C4)N5)nc(OCC45CCCN4CCC5)nc3c2F)c1Cl [Example 276, 4-((1R,5S)-3,8-diazabicyclo[3.2.1]octan-3-yl)-7-(2-chloro-3-methylphenyl)-8-fluoro-2-((hexahydro-1H-pyrrolizin-7a-yl)methoxy)pyrido[4,3-d]pyrimidine]	3790 nM
Fc1c(-c2cccc(Cl)c2Cl)ncc2c(N3C[C@H]4CC[C@@H](C3)N4)nc(OCC34CCCN3CCC4)nc12 [Example 277, 4-((1R,5S)-3,8-diazabicyclo[3.2.1]octan-3-yl)-7-(2,3-dichlorophenyl)-8-fluoro-2-((hexahydro-1H-pyrrolizin-7a-yl)methoxy)pyrido[4,3-d]pyrimidine]	3680 nM
C#CCc1ccc(O)cc1-c1ncc2c(N3C[C@H]4CC[C@@H](C3)N4)nc(OCC34CCCN3CCC4)nc2c1F [Example 279, 3-(4-((1R,5S)-3,8-diazabicyclo[3.2.1]octan-3-yl)-8-fluoro-2-((hexahydro-1H-pyrrolizin-7a-yl)methoxy)pyrido[4,3-d]pyrimidin-7-yl)-4-(prop-2-yn-1-yl)phenol]	7400 nM
COCCNC(=O)O[C@@H]1C[C@@H](COc2nc(N3C[C@H]4CC[C@@H](C3)N4)c3cnc(-c4cccc5cccc(Cl)c45)c(F)c3n2)N(C)C1 [Example 280, (3R,5S)-5-(((4-((1R,5S)-3,8-diazabicyclo[3.2.1]octan-3-yl)-7-(8-chloronaphthalen-1-yl)-8-fluoropyrido[4,3-d]pyrimidin-2-yl)oxy)methyl)-1-methylpyrrolidin-3-yl (2-methoxyethyl)carbamate]	6120 nM
C#Cc1c(F)ccc2cccc(-c3ncc4c(N5C[C@H]6CC[C@@H](C5)N6)nc(OC[C@@]56CCCN5C[C@H](F)C6)nc4c3F)c12 [Example 281, 4-((1R,5S)-3,8-diazabicyclo[3.2.1]octan-3-yl)-7-(8-ethynyl-7-fluoronaphthalen-1-yl)-8-fluoro-2-(((2R,7aS)-2-fluorohexahydro-1H-pyrrolizin-7a-yl)methoxy)pyrido[4,3-d]pyrimidine]	97.8 nM
Oc1cc(-c2ncc3c(N4C[C@H]5CC[C@@H](C4)N5)nc(OC[C@@]45CCCN4C[C@H](F)C5)nc3c2F)c2c(F)cccc2c1 [Example 282, 4-(4-((1R,5S)-3,8-diazabicyclo[3.2.1]octan-3-yl)-8-fluoro-2-(((2R,7aS)-2-fluorohexahydro-1H-pyrrolizin-7a-yl)methoxy)pyrido[4,3-d]pyrimidin-7-yl)-5-fluoronaphthalen-2-ol]	4.9 nM
Oc1cc(Cl)c(C2CC2)c(-c2ncc3c(N4C[C@H]5CC[C@@H](C4)N5)nc(OC[C@@]45CCCN4C[C@H](F)C5)nc3c2F)c1 [Example 283, 3-(4-((1R,5S)-3,8-diazabicyclo[3.2.1]octan-3-yl)-8-fluoro-2-(((2R,7aS)-2-fluorohexahydro-1H-pyrrolizin-7a-yl)methoxy)pyrido[4,3-d]pyrimidin-7-yl)-5-chloro-4-cyclopropylphenol]	7 nM
Oc1cc(Cl)c(C(F)(F)F)c(-c2ncc3c(N4C[C@H]5CC[C@@H](C4)N5)nc(OC[C@@]45CCCN4C[C@H](F)C5)nc3c2F)c1 [Example 284, 3-(4-((1R,5S)-3,8-diazabicyclo[3.2.1]octan-3-yl)-8-fluoro-2-(((2R,7aS)-2-fluorohexahydro-1H-pyrrolizin-7a-yl)methoxy)pyrido[4,3-d]pyrimidin-7-yl)-5-chloro-4-(trifluoromethyl)phenol]	17.4 nM
C[C@@H]1C[C@@H]1c1ccccc1-c1ncc2c(N3C[C@H]4CC[C@@H](C3)N4)nc(OCC34CCCN3CCC4)nc2c1F [Example 286, 4-((1R,5S)-3,8-diazabicyclo[3.2.1]octan-3-yl)-8-fluoro-2-((hexahydro-1H-pyrrolizin-7a-yl)methoxy)-7-(2-((1S,2R)-2-methylcyclopropyl)phenyl)pyrido[4,3-d]pyrimidine]	1730 nM
C[C@H]1C[C@H]1c1ccccc1-c1ncc2c(N3C[C@H]4CC[C@@H](C3)N4)nc(OCC34CCCN3CCC4)nc2c1F [Example 287, 4-((1R,5S)-3,8-diazabicyclo[3.2.1]octan-3-yl)-8-fluoro-2-((hexahydro-1H-pyrrolizin-7a-yl)methoxy)-7-(2-((1R,2S)-2-methylcyclopropyl)phenyl)pyrido[4,3-d]pyrimidine]	8070 nM
CC(C)c1c(F)cc(O)cc1-c1ncc2c(N3C[C@H]4CC[C@@H](C3)N4)nc(OC[C@@]34CCCN3C[C@H](F)C4)nc2c1F [Example 290, 3-(4-((1R,5S)-3,8-diazabicyclo[3.2.1]octan-3-yl)-8-fluoro-2-(((2R,7aS)-2-fluorotetrahydro-1H-pyrrolizin-7a(5H)-yl)methoxy)pyrido[4,3-d]pyrimidin-7-yl)-5-fluoro-4-isopropylphenol]	110 nM
CC(C)c1c(Cl)cc(O)cc1-c1ncc2c(N3C[C@H]4CC[C@@H](C3)N4)nc(OC[C@@]34CCCN3C[C@H](F)C4)nc2c1F [Example 291, 3-(4-((1R,5S)-3,8-diazabicyclo[3.2.1]octan-3-yl)-8-fluoro-2-(((2R,7aS)-2-fluorohexahydro-1H-pyrrolizin-7a-yl)methoxy)pyrido[4,3-d]pyrimidin-7-yl)-5-chloro-4-isopropylphenol]	46.5 nM
Fc1cccc(-c2ncc3c(N4C[C@H]5CC[C@@H](C4)N5)nc(OCC45CCCN4CCC5)nc3c2F)c1C(F)(F)F [Example 292, 4-((1R,5S)-3,8-diazabicyclo[3.2.1]octan-3-yl)-8-fluoro-7-(3-fluoro-2-(trifluoromethyl)phenyl)-2-((tetrahydro-1H-pyrrolizin-7a(5H)-yl)methoxy)pyrido[4,3-d]pyrimidine]	1700 nM

Source: patent US11453683B1, “KRas G12D inhibitors” (Mirati Therapeutics, Inc., priority 2019, dated 2022)
